Read-outs that look alike come from different tables or passages of the source.
Tests used:
[1] = Stability as solid (stored at 90° C. for 1 week, HPLC); type: physicochemical
KPL4 = assay: Proliferation assay (Cell Titer-Glo, 72 h), KPL4; conditions: KPL4, 72 h
BT474 = assay: Proliferation assay (Cell Titer-Glo, 72 h), BT474; conditions: Homo sapiens, BT-474, 72 h, BT474, Breast
MDA-MB-468 = assay: Proliferation assay (Cell Titer-Glo, 72 h), MDA-MB-468; conditions: MDA-MB-468, Breast, listed as free base
T47D = assay: Proliferation assay (Cell Titer-Glo, 72 h), T47D; conditions: Breast, listed as free base
H460 = assay: Proliferation assay (Cell Titer-Glo, 72 h), H460; conditions: Homo sapiens, NCI-H460, 72 h, H460, Lung
MCF7 = assay: Proliferation assay (Cell Titer-Glo, 72 h), MCF7; conditions: MCF7, Breast, listed as free base
LNCaP = assay: Proliferation assay (Cell Titer-Glo, 72 h), LNCaP; conditions: Homo sapiens, 72 h, Prostate
786O = assay: Proliferation assay (Cell Titer-Glo, 72 h), 786O; conditions: Kidney, listed as free base
SK-Br-3 = assay: Proliferation assay (Cell Titer-Glo, 72 h), SK-Br-3; conditions: Homo sapiens, SK-BR-3, 72 h, SK-Br-3, Breast
A549 = assay: Proliferation assay (Cell Titer-Glo, 72 h), A549; conditions: Homo sapiens, A549, 72 h, A549, Lung
PC3 = assay: Proliferation assay (Cell Titer-Glo, 72 h), PC3; conditions: Homo sapiens, PC-3, 72 h, PC3, Prostate
U87MG = assay: Proliferation assay (Cell Titer-Glo, 72 h), U87MG; conditions: Homo sapiens, U-87 MG
BT20 = assay: Proliferation assay (Cell Titer-Glo, 72 h), BT20; conditions: BT20, Breast, listed as free base
HT29 = assay: Proliferation assay (Cell Titer-Glo, 72 h), HT29; conditions: HT29, Colon, listed as free base
HCT116 = assay: Proliferation assay (Cell Titer-Glo, 72 h), HCT116; conditions: Homo sapiens, HCT-116, 72 h, HCT116, Colon
Colo205 = assay: Proliferation assay (Cell Titer-Glo, 72 h), Colo205; conditions: Colo205, Colon, listed as free base

COc1c(OCCCN2CCOCC2)ccc2c1N=C(NC(=O)c1cnc(N)nc1)N1CCN=C21 [compound of formula (I), 2-amino-N-[7-methoxy-8-(3-morpholin-4-ylpropoxy)-2,3-dihydroimidazo[1,2-c]quinazolin-5-yl]pyrimidine-5-carboxamide]
stability in solid form [1]: stable in solid form | therm. stab. solid ([1]; 1 w @ 90° C.): ++ | IC50 (KPL4): 0.003 µM | IC50 (BT474): 0.005 µM | IC50 (MDA-MB-468): 0.76 µM | IC50 (T47D): 0.006 µM | IC50 (H460): 0.046 µM | IC50 (MCF7): 0.027 µM | IC50 (LNCaP): 0.069 µM | IC50 (786O): 0.116 µM | IC50 (SK-Br-3): 0.002 µM | IC50 (A549): 0.037 µM | IC50 (PC3): 0.1 µM | Appearance (0.1M HCl, 1 week, 25° C.): slightly colored solution | Organic impurities, single (0.1M HCl, 1 week, 25° C.): 7.15 Area % | Organic impurities, sum of all (0.1M HCl, 1 week, 25° C.): 24.27 Area % | Appearance (0.1M HCl, 1 week, 70° C.): slightly colored solution | Organic impurities, single (0.1M HCl, 1 week, 70° C.): 25.48 Area % | Organic impurities, sum of all (0.1M HCl, 1 week, 70° C.): 100.00 Area % | Appearance (0.1M HCl, 24 h, 25° C.): slightly colored solution | Organic impurities, single (0.1M HCl, 24 h, 25° C.): 1.90 Area % | Organic impurities, sum of all (0.1M HCl, 24 h, 25° C.): 8.75 Area % | Appearance (0.1M HCl, 24 h, 70° C.): slightly colored solution | Organic impurities, single (0.1M HCl, 24 h, 70° C.): 22.82 Area % | Organic impurities, sum of all (0.1M HCl, 24 h, 70° C.): 92.49 Area % | Appearance (0.1M HCl, Initial): slightly colored solution | Organic impurities, single (0.1M HCl, Initial): 1.13 Area % | Organic impurities, sum of all (0.1M HCl, Initial): 5.87 Area % | Appearance (0.1M NaOH, 1 week, 25° C.): slightly colored solution | Organic impurities, single (0.1M NaOH, 1 week, 25° C.): 22.03 Area % | Organic impurities, sum of all (0.1M NaOH, 1 week, 25° C.): 86.64 Area % | Appearance (0.1M NaOH, 1 week, 70° C.): slightly colored solution | Organic impurities, single (0.1M NaOH, 1 week, 70° C.): 32.63 Area % | Organic impurities, sum of all (0.1M NaOH, 1 week, 70° C.): 99.90 Area % | Appearance (0.1M NaOH, 24 h, 25° C.): slightly colored solution | Organic impurities, single (0.1M NaOH, 24 h, 25° C.): 10.02 Area % | Organic impurities, sum of all (0.1M NaOH, 24 h, 25° C.): 45.40 Area % | Appearance (0.1M NaOH, 24 h, 70° C.): slightly colored solution | Organic impurities, single (0.1M NaOH, 24 h, 70° C.): 23.94 Area % | Organic impurities, sum of all (0.1M NaOH, 24 h, 70° C.): 99.88 Area % | Appearance (0.1M NaOH, Initial): slightly colored solution | Organic impurities, single (0.1M NaOH, Initial): 6.51 Area % | Organic impurities, sum of all (0.1M NaOH, Initial): 30.72 Area % | Appearance (Buffer pH 7, 1 week, 25° C.): slightly colored turbid | Organic impurities, single (Buffer pH 7, 1 week, 25° C.): 0.82 Area % | Organic impurities, sum of all (Buffer pH 7, 1 week, 25° C.): 4.85 Area % | Appearance (Buffer pH 7, 1 week, 70° C.): slightly colored solution | Organic impurities, single (Buffer pH 7, 1 week, 70° C.): 39.01 Area % | Organic impurities, sum of all (Buffer pH 7, 1 week, 70° C.): 97.65 Area % | Appearance (Buffer pH 7, 24 h, 25° C.): slightly colored turbid | Organic impurities, single (Buffer pH 7, 24 h, 25° C.): 0.20 Area % | Organic impurities, sum of all (Buffer pH 7, 24 h, 25° C.): 3.22 Area % | Appearance (Buffer pH 7, 24 h, 70° C.): slightly colored solution | Organic impurities, single (Buffer pH 7, 24 h, 70° C.): 23.25 Area % | Organic impurities, sum of all (Buffer pH 7, 24 h, 70° C.): 56.06 Area % | Appearance (Buffer pH 7, Initial): slightly colored turbid | Organic impurities, single (Buffer pH 7, Initial): 0.23 Area % | Organic impurities, sum of all (Buffer pH 7, Initial): 3.15 Area % | Appearance (Water, 1 week, 25° C.): slightly colored solution | Organic impurities, single (Water, 1 week, 25° C.): 0.54 Area % | Organic impurities, sum of all (Water, 1 week, 25° C.): 5.33 Area % | Appearance (Water, 1 week, 70° C.): slightly colored solution | Organic impurities, single (Water, 1 week, 70° C.): 45.44 Area % | Organic impurities, sum of all (Water, 1 week, 70° C.): 98.59 Area % | Appearance (Water, 24 h, 25° C.): slightly colored solution | Organic impurities, single (Water, 24 h, 25° C.): 0.23 Area % | Organic impurities, sum of all (Water, 24 h, 25° C.): 3.43 Area % | Appearance (Water, 24 h, 70° C.): slightly colored solution | Organic impurities, single (Water, 24 h, 70° C.): 25.89 Area % | Organic impurities, sum of all (Water, 24 h, 70° C.): 58.00 Area % | Appearance (Water, Initial): slightly colored solution | Organic impurities, single (Water, Initial): 0.25 Area % | Organic impurities, sum of all (Water, Initial): 2.79 Area % | IC50 (U87MG): 0.085 µM | IC50 (BT20): 0.006 µM | IC50 (HT29): 0.027 µM | IC50 (HCT116): 0.056 µM | IC50 (Colo205): 0.048 µM
